# Assay results reported in patent US20100167956A1, “DNA CHIP FOR DETECTION OF ESCHERICHIA COLI” (MEDIGENES CO., LTD., priority 2007, published 2010).
# Legend:
# E. coli (ATCC 25922) [1] = assay: Plate count of E. coli in antibiotic-treated cultures; conditions: 1st-3rd experiment
# E. coli (ATCC 25922) [2] = assay: MIC (minimal inhibitory concentration) test, standard dilution method; type: cell-based; conditions: Escherichia coli, ATCC25922; E. coli ATCC 25922, standard dilution method
# Excerpt: For the strain, E. coli (ATCC 25922) was used, and for the antibiotic, Ceftriaxone (CJ, Seoul, Korea), to which E. coli has not developed resistance, was used for the sensitivity test.
# First, each strain activated by two subcultures was used to estimate the antibiotic sensitivity by MIC (minimal inhibitory concentration) test. For the MIC test, a standard dilution method (Performance Standards for Antimicrobial Susceptibility Testing; Fifteenth Informational Supplement, Clinical and Laboratory Standard Institute, M100-S15, Vol. 25, No. 1, 2005) was used according to CLIS (The Clinical and Laboratory Standards Institute) guidelines.
smiles,measurement,setting,value
CO/N=C(\C(=O)N[C@@H]1C(=O)N2C(C(=O)O)=C(CSc3nc(=O)c(=O)[nH]n3C)CS[C@H]12)c1csc(N)n1 [Ceftriaxone],"CFU (number of bacteria, plate count)","E. coli (ATCC 25922) [1]; EC-1-04: 1 MIC antibiotic, 4 hr",0 CFU
same,"CFU (number of bacteria, plate count)","E. coli (ATCC 25922) [1]; EC-1-06: 1 MIC antibiotic, 6 hr",0 CFU
same,"CFU (number of bacteria, plate count)","E. coli (ATCC 25922) [1]; EC-1-12: 1 MIC antibiotic, 12 hr",0 CFU
same,"CFU (number of bacteria, plate count)","E. coli (ATCC 25922) [1]; EC-1-24: 1 MIC antibiotic, 24 hr",0 CFU
same,"CFU (number of bacteria, plate count)","E. coli (ATCC 25922) [1]; EC-2-02: 2 MIC antibiotic, 2 hr",0 CFU
same,"CFU (number of bacteria, plate count)","E. coli (ATCC 25922) [1]; EC-2-04: 2 MIC antibiotic, 4 hr",0 CFU
same,"CFU (number of bacteria, plate count)","E. coli (ATCC 25922) [1]; EC-2-06: 2 MIC antibiotic, 6 hr",0 CFU
same,"CFU (number of bacteria, plate count)","E. coli (ATCC 25922) [1]; EC-2-12: 2 MIC antibiotic, 12 hr",0 CFU
same,"CFU (number of bacteria, plate count)","E. coli (ATCC 25922) [1]; EC-2-24: 2 MIC antibiotic, 24 hr",0 CFU
same,MIC,E. coli (ATCC 25922) [2],0.12 µg/mL
